Measured values taken from patent US20100017900A1, “Prostate Epithelial Androgen Receptor Suppresses Prostate Growth and Tumor Invasion” (University of Rochester, priority 2006, published 2010).
“Also recorded” adds a separate entry of the source.

What was measured:
MMP-9 = MMP-9 enzyme (gelatinase) / zymography assay in PC3-AR9 cells; type: cell-based, human; settings: for gelatinase activity of MMP-9: PC3-AR9 cells
PC3-AR9 cells = experiment: Boyden chamber Matrigel invasion assay of PC3-AR9 cells; type: cell-based, human; settings: Matrigel coated Boyden chambers
Protocol: The invasion assays used Boyden chambers (Becton Dickinson) with […] inserts and 8 μm pores. Matrigel Matrix ([…] surface area) was placed in medium (1:5 dilution) on the inner layer of the invasion chamber and incubated at 37° C. for 30 min before adding the cells.

For `C[C@]12CCC(=O)C[C@@H]1CC[C@@H]1[C@@H]2CC[C@]2(C)[C@@H](O)CC[C@@H]12` [DHT, dihydrotestosterone], the “gelatinase activity of MMP-9” value (MMP-9; 1 nM DHT) was “suppress” and the “invasion of PC3-AR9” value (PC3-AR9 cells; in the presence of DHT, compared to PC3-v) was “decreased”.

With `CC(C)(O)C(=O)Nc1ccc([N+](=O)[O-])c(C(F)(F)F)c1` [HF] the “gelatinase activity of MMP-9” value (MMP-9; 1 μM HF added to 1 nM DHT) was “restore” and the “invasion of PC3-AR9” value (PC3-AR9 cells; addition of HF to DHT) was “increased”.

With `CCCCCCCCCCCCCC(=O)O[C@@H]1[C@@H](C)[C@@]2(O)[C@@H](C=C(CO)C[C@]3(O)C(=O)C(C)=C[C@@H]23)[C@@H]2C(C)(C)[C@]12OC(C)=O` [TPA] the “activity of MMP-9 (zymography)” value (MMP-9; 10 nM TPA) was “increased; also recorded: enhanced”.
